Experimental data published in US12729377B2, “RNAi agents and compositions for inhibiting expression of angiopoietin-like 3 (ANGPTL3), and methods of use” (Arrowhead Pharmaceuticals, Inc., priority 2017, dated 2026).
In the oligonucleotide strings, read from the 5' end, every base follows the letter of its sugar. An asterisk marks phosphorothioate; unmarked linkages are phosphodiester. Other units and linkages are bracketed, terminal groups are in braces. A string of capitals states the bases alone. {NAG37} = tridentate N-acetyl-galactosamine targeting ligand, structure (NAG37)s; [invAb] = inverted abasic unit; m = 2'-O-methyl; f = 2'-fluoro

Columns and labels:
ANGPTL3 gene [1] = experiment: Example 14: RNAi agent and statin, serum triglycerides in LDLR knockout mice; assay type: in vivo, LDLR KO mice
From the text: To evaluate the effect of co-administration of RNAi agents and statins in a disease model, LDLR KO mice were commercially obtained (The Jackson Laboratory). For three weeks prior to the onset of the study, forty-one (41) male 7 to 8 week old LDLR KO mice were placed on a high fat (“western”) diet (Teklad Custom Diets TD.88137), and remained on that diet throughout the duration of the study. Pre-dose serum samples were taken on study Day 1 after a four hour fast. The dosing regimen for the study is recited in the following Table 72:
• Mice were treated at 40 mg/kg for the first 11 days, then switched to 20 mg/kg thereafter.
The vehicle used for the oral gavage in the study was a 1:1 mixture of Ora-Plus®: Ora-Sweet® solution, which were acquired commercially. For the preparation of the atorvastatin oral gavage administrations, the respective desired dose of atorvastatin was first dissolved in sterile water (0.3 mL water per 1 mL of desired formulation) and vortexed until smooth, followed by the addition of a mixture of 1:1 Ora-Plus®: Ora-Sweet® solution (0.7 mL vehicle per 1 mL of desired formulation) and vortexed. On day 1 and for each day thereafter an oral gavage dose was administered for each of the Groups except for Group 2. On Day 23, Groups 1, 2, 3, and 4 received a single subcutaneous administration of 2.5 mg/kg dose ([…] solution) of an ANGPTL3 RNAi agent in D5W (dextrose in 5% water), or vehicle control (D5W) with no RNAi agent.
The RNAi agent tested (AD05488) included a modified sequence and an N-acetyl-galactosamine-containing targeting ligand conjugated to the 5′ terminal end of the sense strand. (See Tables 3, 4, and 5 for modified sequences and targeting ligand structures). The injections were performed between the skin and muscle (i.e. subcutaneous injections) into the loose skin over the neck and shoulder area. Serum was collected on days 8, 15, 22 (pre-RNAi agent injection), 29, 36, 43, and 50. LDLR KO mice were fasted for four hours prior to each collection.
ANGPTL3 protein levels in serum were measured by ELISA assay (R&D Systems), according to the manufacturer's recommendations. Among other biomarkers, triglycerides, total cholesterol, and low-density lipoprotein (LDL) in serum were measured on a Cobas® Integra 400 (Roche Diagnostics), according to the manufacturer's recommendations.
The ANGPTL3 protein levels, triglyceride levels, total cholesterol levels, HDL levels, and LDL levels for each animal were normalized. For normalization, respective levels of ANGPTL3 protein, TG, total cholesterol, or LDL for each animal at a time point was divided by the pre-treatment level of expression in that animal (in this case pre-dose levels on Day 1) to determine the ratio of expression “normalized to pre-treatment.” Data from the study set forth in this Example are shown in the following Tables 73-76: […]

ANGPTL3 gene [2] = experiment: Example 6: serum total cholesterol in mice; assay type: in vivo, C57bl/6 mice
Experimental: (§1) To assess the in vivo activity of additional ANGPTL3 RNAi agents that are designed to target position 304 on the ANGPTL3 gene, six- to eight-week-old female C57bl/6 mice were used. Pre-dose serum samples were taken at day −1 after a four hour fast. At day 1, each mouse was given a single subcutaneous administration of 200 μl containing 0.5 mg/kg (mpk) of an ANGPTL3 RNAi agent in D5W (dextrose in 5% water), or control (D5W) with no RNAi agent, according to the dosing groups recited in Table 25.
(§2) Each of the RNAi agents included a modified sequence and an N-acetyl-galactosamine-containing targeting ligand conjugated to the 5′ terminal end of the sense strand. (See Tables 3, 4, and 5 for modified sequences and targeting ligand structures). The injections were performed between the skin and muscle (i.e. subcutaneous injections) into the loose skin over the neck and shoulder area. Three (3) mice in each group were tested (n=3). Serum was collected on days 8, 15, 22, 30, and on day 43 for certain groups (i.e., Groups 1, 2, 5, and 10 only). Mice were fasted for four hours prior to each collection. ANGPTL3 protein levels in serum were measured by ELISA assay (R&D Systems), according to the manufacturer's recommendations. Triglycerides, total cholesterol, high-density lipoprotein (HDL), and low-density lipoprotein (LDL) in serum were measured on a Cobas® Integra 400 (Roche Diagnostics), according to the manufacturer's recommendations.
(§3) The ANGPTL3 protein levels, triglyceride levels, total cholesterol levels, HDL levels, and LDL levels for each animal were normalized. For normalization, the level of ANGPTL3 protein, triglyceride, HDL, and total cholesterol, respectively, for each animal at a time point, was divided by the pre-treatment level of expression in that animal (in this case at day −1) to determine the ratio of expression “normalized to pre-treatment.” Expression at a specific time point was then normalized to the D5W control group by dividing the “normalized to pre-treatment” ratio for an individual animal by the mean “normalized to pretreatment” ratio of all mice in the D5W control group.

ANGPTL3 gene [3] = experiment: Example 6: serum LDL in mice; assay type: in vivo, C57bl/6 mice
Experimental: as §1, §2, §3

[4] = Day 8, 0.5 mg/kg single SC injection on day 1, n=3
[5] = Day 15, 0.5 mg/kg single SC injection on day 1, n=3
[6] = Day 22, 0.5 mg/kg single SC injection on day 1, n=3
[7] = Day 30, 0.5 mg/kg single SC injection on day 1, n=3
[8] = Day 43, 0.5 mg/kg single SC injection on day 1, n=3

“AD05488: RNAi agent duplex: antisense AM07235-AS, sense AM07234-SS (antisense mU*fA*mC*fUmGfAmUfCmAfAmAfUmAfUmGfUmUfGmAfG*mC; sense {NAG37}*[invAb]*mGmCmUmCmAmAmCmAfUfAfUmUmUmGmAmUmCmAmGmUmA*[invAb])” was tested, and the “Avg TG normalized to pre-treatment” value (ANGPTL3 gene [1]; Group 2: no gavage, 2.5 mg/kg AD05488 SC on day 23, Day 8 (pre-RNAi agent injection)) was 0.988, the “Avg TG normalized to pre-treatment” value (ANGPTL3 gene [1]; Group 2: no gavage, 2.5 mg/kg AD05488 SC on day 23, Day 15 (pre-RNAi agent injection)) was 1.247 and the “Avg TG normalized to pre-treatment” value (ANGPTL3 gene [1]; Group 2: no gavage, 2.5 mg/kg AD05488 SC on day 23, Day 22 (pre-RNAi agent injection)) was 1.524. The “Avg TG normalized to pre-treatment” value (ANGPTL3 gene [1]; Group 2: no gavage, 2.5 mg/kg AD05488 SC on day 23, Day 29) was 0.166, the “Avg TG normalized to pre-treatment” value (ANGPTL3 gene [1]; Group 2: no gavage, 2.5 mg/kg AD05488 SC on day 23, Day 36) was 0.125 and the “Avg TG normalized to pre-treatment” value (ANGPTL3 gene [1]; Group 2: no gavage, 2.5 mg/kg AD05488 SC on day 23, Day 43) was 0.139. For the same substance, the “Avg TG normalized to pre-treatment” value (ANGPTL3 gene [1]; Group 2: no gavage, 2.5 mg/kg AD05488 SC on day 23, Day 50) was 0.153, the “Avg TG normalized to pre-treatment” value (ANGPTL3 gene [1]; Group 3: 10 mg/kg daily oral gavage atorvastatin, 2.5 mg/kg AD05488 on day 23, Day 8 (pre-RNAi agent injection)) was 0.613 and the “Avg TG normalized to pre-treatment” value (ANGPTL3 gene [1]; Group 3: 10 mg/kg daily oral gavage atorvastatin, 2.5 mg/kg AD05488 on day 23, Day 15 (pre-RNAi agent injection)) was 0.436. The “Avg TG normalized to pre-treatment” value (ANGPTL3 gene [1]; Group 3: 10 mg/kg daily oral gavage atorvastatin, 2.5 mg/kg AD05488 on day 23, Day 22 (pre-RNAi agent injection)) was 0.614, the “Avg TG normalized to pre-treatment” value (ANGPTL3 gene [1]; Group 3: 10 mg/kg daily oral gavage atorvastatin, 2.5 mg/kg AD05488 on day 23, Day 29) was 0.072 and the “Avg TG normalized to pre-treatment” value (ANGPTL3 gene [1]; Group 3: 10 mg/kg daily oral gavage atorvastatin, 2.5 mg/kg AD05488 on day 23, Day 36) was 0.058. For the same substance, the “Avg TG normalized to pre-treatment” value (ANGPTL3 gene [1]; Group 3: 10 mg/kg daily oral gavage atorvastatin, 2.5 mg/kg AD05488 on day 23, Day 43) was 0.076, the “Avg TG normalized to pre-treatment” value (ANGPTL3 gene [1]; Group 3: 10 mg/kg daily oral gavage atorvastatin, 2.5 mg/kg AD05488 on day 23, Day 50) was 0.065 and the “Avg TG normalized to pre-treatment” value (ANGPTL3 gene [1]; Group 4: 20 mg/kg* daily oral gavage atorvastatin (40 mg/kg first 11 days), 2.5 mg/kg AD05488 on day 23, Day 8 (pre-RNAi agent injection)) was 0.567. For the same substance, the “Avg TG normalized to pre-treatment” value (ANGPTL3 gene [1]; Group 4: 20 mg/kg* daily oral gavage atorvastatin (40 mg/kg first 11 days), 2.5 mg/kg AD05488 on day 23, Day 15 (pre-RNAi agent injection)) was 0.526, the “Avg TG normalized to pre-treatment” value (ANGPTL3 gene [1]; Group 4: 20 mg/kg* daily oral gavage atorvastatin (40 mg/kg first 11 days), 2.5 mg/kg AD05488 on day 23, Day 22 (pre-RNAi agent injection)) was 0.748 and the “Avg TG normalized to pre-treatment” value (ANGPTL3 gene [1]; Group 4: 20 mg/kg* daily oral gavage atorvastatin (40 mg/kg first 11 days), 2.5 mg/kg AD05488 on day 23, Day 29) was 0.071. The “Avg TG normalized to pre-treatment” value (ANGPTL3 gene [1]; Group 4: 20 mg/kg* daily oral gavage atorvastatin (40 mg/kg first 11 days), 2.5 mg/kg AD05488 on day 23, Day 36) was 0.058, the “Avg TG normalized to pre-treatment” value (ANGPTL3 gene [1]; Group 4: 20 mg/kg* daily oral gavage atorvastatin (40 mg/kg first 11 days), 2.5 mg/kg AD05488 on day 23, Day 43) was 0.089 and the “Avg TG normalized to pre-treatment” value (ANGPTL3 gene [1]; Group 4: 20 mg/kg* daily oral gavage atorvastatin (40 mg/kg first 11 days), 2.5 mg/kg AD05488 on day 23, Day 50) was 0.082. For the same substance, the “effects on lipid parameters” value (ANGPTL3 gene [1]; co-administration of atorvastatin (Groups 3 and 4), LDLR KO mice on high fat diet) was “additive effects”, the “total reductions in triglycerides” value (ANGPTL3 gene [1]; co-administration of atorvastatin and RNAi agent (Groups 3 and 4), LDLR KO mice on high fat diet) was ~ 95% and the “Avg Chol (total cholesterol), normalized to pre-treatment and control” value (“Avg Chol (total cholesterol), normalized” below) (ANGPTL3 gene [2]; [4]) was 0.782. For the same substance, the “Avg Chol (total cholesterol), normalized” value (ANGPTL3 gene [2]; [5]) was 0.768, the “Avg Chol (total cholesterol), normalized” value (ANGPTL3 gene [2]; [6]) was 0.801 and the “Avg Chol (total cholesterol), normalized” value (ANGPTL3 gene [2]; [7]) was 0.961. The “Avg Chol (total cholesterol), normalized” value (ANGPTL3 gene [2]; [8]) was 1.037, the “Avg LDL, normalized to pre-treatment and control” value (from here on “Avg LDL, normalized”) (ANGPTL3 gene [3]; [4]) was 0.805 and the “Avg LDL, normalized” value (ANGPTL3 gene [3]; [5]) was 0.880. For the same substance, the “Avg LDL, normalized” value (ANGPTL3 gene [3]; [6]) was 0.991, the “Avg LDL, normalized” value (ANGPTL3 gene [3]; [7]) was 1.093 and the “Avg LDL, normalized” value (ANGPTL3 gene [3]; [8]) was 0.970.
